In brackets after ≈: the same amount, converted by molar mass. Activity calls are given as the source filed them. The calls are words filed in the database; no cut-off is given here.
What was measured:
[1] = Toxicity in mouse infected with Candida albicans ATCC SC5314 assessed as pathological changes in heart at 4 mg/kg, ip administered ever other day for 12 days by hematoxylin and eosin staining based histopathological analysis; format: organism-based; details: in vivo, 288 h, time 12 day
Candida albicans [2] = assay: Antifungal activity against fluconazole resistant Candida albicans strain 904 assessed as fungal growth inhibition measured after 72 hrs by CLSI protocol based liquid medium dilution method; format: functional
Nakaseomyces glabratus = assay: Antifungal activity against Candida glabrata ATCC 0001 assessed as fungal growth inhibition measured after 72 hrs by CLSI protocol based liquid medium dilution method; format: functional
[3] = Hepatotoxicity in mouse infected with Candida albicans ATCC SC5314 assessed as change in plasma AST level at 4 mg/kg, ip administered ever other day for 12 days; format: toxicity, organism-based; details: in vivo, 288 h, time 12 day
Candida albicans [4] = assay: Induction of morphological changes in Candida albicans assessed as structural damage in fungal cell membrane at 4 ug/ml measured after 48 hrs by TEM analysis; format: functional, organism-based; details: dose 4.0 µg/ml
Mus musculus [5] = assay: In vivo antifungal activity against Candida albicans ATCC SC5314 infected mouse model assessed as disappearance of pathogenic fungi at 4 mg/kg, ip administered ever other day for 12 days by hematoxyin-eosin staining based microscopic analysis; format: functional, organism-based; details: time 12.0 day
Mus musculus [6] = assay: In vivo antifungal activity against Candida albicans ATCC SC5314 infected mouse model assessed as regular arrangement of intercellular space at 4 mg/kg, ip administered ever other day for 12 days by hematoxyin-eosin staining based microscopic analysis; format: functional, organism-based; details: time 12.0 day
Candida albicans [7] = assay: Induction of morphological changes in Candida albicans assessed as disappearance of endoplasmic reticulum at 4 ug/ml measured after 72 hrs by TEM analysis; format: functional, organism-based; details: dose 4.0 µg/ml
Candida albicans [8] = assay: Antifungal activity against fluconazole resistant Candida albicans strain 901 assessed as fungal growth inhibition measured after 72 hrs by CLSI protocol based liquid medium dilution method; format: functional
[9] = Toxicity in mouse infected with Candida albicans ATCC SC5314 assessed as pathological changes in liver at 4 mg/kg, ip administered ever other day for 12 days by hematoxylin and eosin staining based histopathological analysis; format: organism-based; details: in vivo, 288 h, time 12 day
[10] = Toxicity in mouse infected with Candida albicans ATCC SC5314 assessed as pathological changes in spleen at 4 mg/kg, ip administered ever other day for 12 days by hematoxylin and eosin staining based histopathological analysis; format: organism-based; details: in vivo, 288 h, time 12 day
Candida tropicalis = assay: Antifungal activity against Candida tropicalis ATCC 1369 assessed as fungal growth inhibition measured after 72 hrs by CLSI protocol based liquid medium dilution method; format: functional
Candida albicans [11] = assay: Antifungal activity against Candida albicans ATCC SC5314 assessed as change in lanosterol level at 4 ug/ml incubated for 48 hrs by LC-MS analysis (reference value: 3.7%); format: functional; details: dose 4 µg/ml
Candida albicans [12] = assay: Induction of morphological changes in Candida albicans assessed as decrease in osmotic pressure of cells at 4 ug/ml measured after 72 hrs by TEM analysis; format: functional, organism-based; details: dose 4.0 µg/ml

CC(C)[C@H](NC(=O)c1cccc2c1OCCO2)C(=O)N[C@@H](Cn1cncn1)c1ccccc1
Activity [1]: Non-Toxic | MIC50 (Candida albicans [2]): 2 µg/mL (≈ 4.45 µM) | MIC50 (Nakaseomyces glabratus): 0.25 µg/mL (≈ 0.556 µM) | Activity [3]: 85.5 IU/L | Activity (Candida albicans [4]): Active | Activity (Mus musculus [5]): Active | Activity (Mus musculus [6]): Active | Activity (Candida albicans [7]): Active | MIC50 (Candida albicans [8]): 1 µg/mL (≈ 2.22 µM) | Activity [9]: Non-Toxic | Activity [10]: Non-Toxic | MIC50 (Candida tropicalis): 0.125 µg/mL (≈ 0.278 µM) | Activity (Candida albicans [11]): 16.4% | Activity (Candida albicans [12]): Active

Reference: ChEMBL document CHEMBL5143523, “Construction and activity evaluation of novel benzodioxane derivatives as dual-target antifungal inhibitors” (Eur J Med Chem, 2022)
